# Results: patent US20260008758A1, “LINEAR DIPEPTIDYL PEPTIDASE 1 INHIBITORS AND USES THEREOF” (Insmed Incorporated, priority 2024, published 2026)
# Molecular target: human DPP1 enzyme (Homo sapiens (Human), UniProt P53634)
# Assay: Human DPP1 enzyme IC50 assay
# Type: biochemical
# Settings: recombinant human DPP1, H-Gly-Arg-AMC substrate 400 μM
# Procedure: Test articles were applied to activated human DPP1 enzyme in Assay Buffer (25 mM MES pH 6.0, 50 mM NaCl, 5 mM DTT) in a total reaction volume of 125 μL. 25 μL of compound in Assay Buffer plus 5% DMSO was first added to 50 μL of activated human DPP1 enzyme at a concentration of 1 ng/μL and allowed to pre-incubate for 10 minutes at 37° C. after which 50 μL of 1000 μM H-Gly-Arg-AMC substrate (Bachem; St. Torrance, CA) was added, giving final substrate concentration of 400 μM and a final DMSO concentration of 1%. Substrate cleavage was measured for 90 minutes at 37° C., with fluorescence at Excitation/Emission 350/450 nm measured every 5 minutes. DPP1 concentration was interpolated based on its activity relative to a standard curve of activated human recombinant DPP1 enzyme. IC50 values for each compound were calculated via the XLFit (IDBS Version 5.3.1.3) Add-On to Microsoft Excel using the four parameter fit equation y={A+[(B-A)]/[1+((C/x)^D)]}, which appears as equation number 205 (4 Parameter Logistic Model or Sigmoidal Dose-Response Model) in XLFit. Default constraints were used for each Parameter.
# Sequence of human DPP1 enzyme (P53634 25-134): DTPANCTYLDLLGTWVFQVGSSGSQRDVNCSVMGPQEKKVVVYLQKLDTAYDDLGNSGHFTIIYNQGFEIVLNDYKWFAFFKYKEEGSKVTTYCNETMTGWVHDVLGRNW
# Sequence of human DPP1 enzyme (P53634 231-394): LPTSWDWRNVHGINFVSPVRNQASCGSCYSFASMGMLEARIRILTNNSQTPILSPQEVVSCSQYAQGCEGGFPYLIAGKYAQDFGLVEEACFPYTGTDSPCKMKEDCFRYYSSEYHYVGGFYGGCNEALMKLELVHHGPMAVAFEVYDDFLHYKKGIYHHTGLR
# Sequence of human DPP1 enzyme (P53634 395-463): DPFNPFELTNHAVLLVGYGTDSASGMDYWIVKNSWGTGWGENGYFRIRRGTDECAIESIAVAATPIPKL
row,Structure (SMILES),IC50 [nM]
1,C[C@@H](N)[C@H](O)C(=O)N[C@H](C#N)Cc1ccc(-c2ccc3oc(=O)n(C)c3c2)cc1 [Compound 102A],≥ 15
2,C[C@H](N)[C@H](O)C(=O)N[C@H](C#N)Cc1ccc(-c2ccc3oc(=O)n(C)c3c2)cc1 [Compound 102C],≥ 15
3,"CO[C@H](CN(C)C)C(=O)N[C@H](C#N)Cc1ccc(-c2ccc3oc(=O)n(C)c3c2)cc1 [Compound 112, (2R)—N-[(1S)-1-cyano-2-[4-(3-methyl-2-oxo-1,3-benzoxazol-5-yl)phenyl]ethyl]-3-(dimethylamino)-2-methoxypropanamide]",≥ 15
4,"CN(C)C[C@@H](O)CC(=O)N[C@H](C#N)Cc1ccc(-c2ccc3oc(=O)n(C)c3c2)cc1 [Compound 113, (3S)—N-[(1S)-1-cyano-2-[4-(3-methyl-2-oxo-1,3-benzoxazol-5-yl)phenyl]ethyl]-4-(dimethylamino)-3-hydroxybutanamide]",≥ 15
5,"Cn1c(=O)oc2ccc(-c3ccc(C[C@@H](C#N)NC(=O)[C@@H](O)CN4CCOCC4)cc3)cc21 [Compound 121, (2S)—N-[(1S)-1-cyano-2-[4-(3-methyl-2-oxo-1,3-benzoxazol-5-yl)phenyl]ethyl]-2-hydroxy-3-(morpholin-4-yl)propanamide]",≥ 15
6,"CCN(C)C[C@H](OC)C(=O)N[C@H](C#N)Cc1ccc(-c2ccc3oc(=O)n(C)c3c2)cc1 [Compound 130, (2S)—N-[(1S)-1-cyano-2-[4-(3-methyl-2-oxo-1,3-benzoxazol-5-yl)phenyl]ethyl]-3-[ethyl(methyl)amino]-2-methoxypropanamide]",≥ 15
7,"CC(CO)CC(N)C(=O)N[C@H](C#N)Cc1ccc(-c2ccc3oc(=O)n(C)c3c2)cc1 (stereo partly drawn) [Compound 168, 2-amino-N-[(1S)-1-cyano-2-[4-(3-methyl-2-oxo-1,3-benzoxazol-5-yl)phenyl]ethyl]-5-hydroxy-4-methylpentanamide]",≥ 15
8,"C[C@@H](O)[C@@](C)(N)C(=O)N[C@H](C#N)Cc1ccc(-c2ccc3oc(=O)n(C)c3c2)cc1 [Compound 171C, (2R,3R)-2-amino-N-[(1S)-1-cyano-2-[4-(3-methyl-2-oxo-1,3-benzoxazol-5-yl)phenyl]ethyl]-3-hydroxy-2-methylbutanamide]",≥ 15
9,"Cn1c(=O)oc2ccc(-c3ccc(C[C@@H](C#N)NC(=O)C(CN)Cc4cccnc4)cc3)cc21 (stereo partly drawn) [Compound 191, 3-Amino-N-[(1S)-1-cyano-2-[4-(3-methyl-2-oxo-1,3-benzoxazol-5-yl)phenyl]ethyl]-2-(pyridin-3-ylmethyl) propanamide]",≥ 15
10,"Cc1ccccc1C[C@H](CN)C(=O)N[C@H](C#N)Cc1ccc(-c2ccc3oc(=O)n(C)c3c2)cc1 [Compound 193, (2R)-3-amino-N-[(1S)-1-cyano-2-[4-(3-methyl-2-oxo-1,3-benzoxazol-5-yl)phenyl]ethyl]-2-[(2-methylphenyl)methyl]propanamide]",≥ 15
11,"Cc1ccccc1C[C@@H](CN)C(=O)N[C@H](C#N)Cc1ccc(-c2ccc3oc(=O)n(C)c3c2)cc1 [Compound 194, (2S)-3-amino-N-[(1S)-1-cyano-2-[4-(3-methyl-2-oxo-1,3-benzoxazol-5-yl)phenyl]ethyl]-2-[(2-methylphenyl)methyl]propanamide]",≥ 15
12,"Cn1c(=O)oc2ccc(-c3ccc(C[C@@H](C#N)NC(=O)C(C)(CN)Cc4ccccc4F)cc3)cc21 (stereo partly drawn) [Compound 196, 3-Amino-N-[(1S)-1-cyano-2-[4-(3-methyl-2-oxo-1,3-benzoxazol-5-yl)phenyl]ethyl]-2-[(2-fluorophenyl)methyl]-2-methylpropanamide]",≥ 15
13,"Cn1c(=O)oc2ccc(-c3ccc(C[C@@H](C#N)NC(=O)C(C)(CN)Cc4c(F)cccc4Cl)cc3)cc21 (stereo partly drawn) [Compound 197, 3-amino-2-[(2-chloro-6-fluorophenyl)methyl]-N-[(1S)-1-cyano-2-[4-(3-methyl-2-oxo-1,3-benzoxazol-5-yl)phenyl]ethyl]-2-methylpropanamide]",≥ 15
14,"Cn1c(=O)oc2ccc(-c3ccc(C[C@@H](C#N)NC(=O)C(C)(N)c4cccnc4)cc3)cc21 (stereo partly drawn) [Compound 216, 2-amino-N-[(1S)-1-cyano-2-[4-(3-methyl-2-oxo-1,3-benzoxazol-5-yl)phenyl]ethyl]-2-(pyridin-3-yl)propanamide]",≥ 15
15,"Cn1c(=O)oc2ccc(-c3ccc(C[C@@H](C#N)NC(=O)C(N)Cc4cncc(O)c4)cc3)cc21 (stereo partly drawn) [Compound 217, 2-amino-N-[(1S)-1-cyano-2-[4-(3-methyl-2-oxo-1,3-benzoxazol-5-yl)phenyl]ethyl]-3-(5-hydroxypyridin-3-yl)propanamide]",≥ 15
16,"Cn1c(=O)oc2ccc(-c3ccc(C[C@@H](C#N)NC(=O)C[C@@H](N)Cc4cccc(O)c4)cc3)cc21 [Compound 225, (3S)-3-amino-N-[(1S)-1-cyano-2-[4-(3-methyl-2-oxo-1,3-benzoxazol-5-yl)phenyl]ethyl]-4-(3-hydroxyphenyl)butanamide]",≥ 15
17,"Cn1c(=O)oc2ccc(-c3ccc(C[C@@H](C#N)NC(=O)C[C@@H](N)C4CCCO4)cc3)cc21 (stereo partly drawn) [Compound 226, (3R)-3-amino-N—((S)-1-cyano-2-(4-(3-methyl-2-oxo-2,3-dihydrobenzo[d]oxazol-5-yl)phenyl)ethyl)-3-(tetrahydrofuran-2-yl)propanamide]",≥ 15
18,"Cn1c(=O)oc2ccc(-c3ccc(C[C@@H](C#N)NC(=O)C[C@H](N)c4ccccc4O)cc3)cc21 [Compound 227A, (3S)-3-amino-N-[(1S)-1-cyano-2-[4-(3-methyl-2-oxo-1,3-benzoxazol-5-yl)phenyl]ethyl]-3-(2-hydroxyphenyl)propenamide]",≥ 15
19,"Cn1c(=O)oc2ccc(-c3ccc(C[C@@H](C#N)NC(=O)C[C@@H](N)c4ccccc4O)cc3)cc21 [Compound 227B, (3R)-3-amino-N-[(1S)-1-cyano-2-[4-(3-methyl-2-oxo-1,3-benzoxazol-5-yl)phenyl]ethyl]-3-(2-hydroxyphenyl)propanamide]",≥ 15
20,"Cn1c(=O)oc2ccc(-c3ccc(C[C@@H](C#N)NC(=O)CC(N)c4cocn4)cc3)cc21 (stereo partly drawn) [Compound 229, 3-amino-N-[(1S)-1-cyano-2-[4-(3-methyl-2-oxo-1,3-benzoxazol-5-yl)phenyl]ethyl]-3-(1,3-oxazol-4-yl)propanamide]",≥ 15

# Second part, the compound after the results:
row,IC50 [nM],Structure (SMILES)
1,≥ 15,"CN(C)C[C@@H](O)C(=O)N[C@H](C#N)Cc1ccc(-c2ccc3oc(=O)n(C)c3c2)cc1 [Compound 104, (2R)—N-[(1S)-1-cyano-2-[4-(3-methyl-2-oxo-1,3-benzoxazol-5-yl)phenyl]ethyl]-3-(dimethylamino)-2-hydroxypropanamide]"
2,≥ 15,"CCN(CC)C[C@H](O)C(=O)N[C@H](C#N)Cc1ccc(-c2ccc3oc(=O)n(C)c3c2)cc1 [Compound 115, (2S)—N-[(1S)-1-cyano-2-[4-(3-methyl-2-oxo-1,3-benzoxazol-5-yl)phenyl]ethyl]-3-(diethylamino)-2-hydroxypropanamide]"
3,≥ 15,"CCN(CC)C[C@@H](O)C(=O)N[C@H](C#N)Cc1ccc(-c2ccc3oc(=O)n(C)c3c2)cc1 [Compound 116, (2R)—N-[(1S)-1-cyano-2-[4-(3-methyl-2-oxo-1,3-benzoxazol-5-yl)phenyl]ethyl]-3-(diethylamino)-2-hydroxypropanamide]"
4,≥ 15,"CN(C)C[C@H](O)CC(=O)N[C@H](C#N)Cc1ccc(-c2ccc3oc(=O)n(C)c3c2)cc1 [Compound 118, (3R)—N-[(1S)-1-cyano-2-[4-(3-methyl-2-oxo-1,3-benzoxazol-5-yl)phenyl]ethyl]-4-(dimethylamino)-3-hydroxybutanamide]"
5,≥ 15,"Cn1c(=O)oc2ccc(-c3ccc(C[C@@H](C#N)NC(=O)[C@@H](O)CN4CCCC4)cc3)cc21 [Compound 120, (2S)—N-[(1S)-1-cyano-2-[4-(3-methyl-2-oxo-1,3-benzoxazol-5-yl)phenyl]ethyl]-2-hydroxy-3-(pyrrolidin-1-yl)propanamide]"
6,≥ 15,"CC(O)CNCC(=O)N[C@H](C#N)Cc1ccc(-c2ccc3oc(=O)n(C)c3c2)cc1 (stereo partly drawn) [Compound 174, N—((S)-1-cyano-2-(4-(3-methyl-2-oxo-2,3-dihydrobenzo[d]oxazol-5-yl)phenyl)ethyl)-2-((2-hydroxypropyl)amino)acetamide]"
7,≥ 15,"Cn1c(=O)oc2ccc(-c3ccc(C[C@@H](C#N)NC(=O)CC(N)c4ccccc4)cc3)cc21 (stereo partly drawn) [Compound 189, 3-amino-N-[(1S)-1-cyano-2-[4-(3-methyl-2-oxo-2,3-dihydro-1,3-benzoxazol-5-yl)phenyl]ethyl]-3-phenylpropanamide]"
8,≥ 15,Cc1ccccc1CC(CN)C(=O)N[C@H](C#N)Cc1ccc(-c2ccc3oc(=O)n(C)c3c2)cc1 (stereo partly shown) [Compound 192]
9,≥ 15,"Cc1ccccc1[C@@H](N)CC(=O)N[C@H](C#N)Cc1ccc(-c2ccc3oc(=O)n(C)c3c2)cc1 [Compound 198, (3S)-3-amino-N-[(1S)-1-cyano-2-[4-(3-methyl-2-oxo-1,3-benzoxazol-5-yl)phenyl]ethyl]-3-(2-methylphenyl)propanamide]"
10,≥ 15,"Cn1c(=O)oc2ccc(-c3ccc(C[C@@H](C#N)NC(=O)C(C)(N)c4ccc(O)cc4)cc3)cc21 (stereo partly drawn) [Compound 200, 2-amino-N-[(1S)-1-cyano-2-[4-(3-methyl-2-oxo-1,3-benzoxazol-5-yl)phenyl]ethyl]-2-(4-hydroxyphenyl)propanamide]"
11,≥ 15,"Cn1c(=O)oc2ccc(-c3ccc(C[C@@H](C#N)NC(=O)CC(N)Cc4cocn4)cc3)cc21 (stereo partly drawn) [Compound 230, 3-amino-N-[(1S)-1-cyano-2-[4-(3-methyl-2-oxo-1,3-benzoxazol-5-yl)phenyl]ethyl]-4-(1,3-oxazol-4-yl)butanamide]"
